From publication PMC4303583 (International journal of biological macromolecules, 2012)
Read-outs that look alike come from different tables or passages of the source.

How the values were obtained:
[1] = molecular target: T1, E. coli ATP synthase (purified F1 or membrane bound F1Fo) (Escherichia coli, UniProt P0ABA6+P0ABB0+P0ABB4); assay: biochemical; assay type: biochemical
[2] = system: wild-type E. coli strain pBWU13.4/DK8; assay type: cell-based, Escherichia coli
[3] = molecular target: T1, E. coli ATP synthase (purified F1 or membrane bound F1Fo); conditions: maximal inhibition; cited from earlier work
[4] = left over ATPase activity at maximal inhibition
[5] = purified F1 or membranes, preincubated 60 min at 23°C, varied concentrations
[6] = OD595 after ~20 hours growth at 37 °C, control 100, null 45
[7] = left over ATPase activity at maximal inhibition, purified F1 or membranes

T1 sequence (P0ABA4 whole entry): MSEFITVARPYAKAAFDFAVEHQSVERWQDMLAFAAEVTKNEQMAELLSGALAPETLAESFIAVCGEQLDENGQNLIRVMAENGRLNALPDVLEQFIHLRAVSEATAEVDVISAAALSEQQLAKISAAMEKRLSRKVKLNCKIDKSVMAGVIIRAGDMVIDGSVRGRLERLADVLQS
T1 sequence (P0ABB4 2-460): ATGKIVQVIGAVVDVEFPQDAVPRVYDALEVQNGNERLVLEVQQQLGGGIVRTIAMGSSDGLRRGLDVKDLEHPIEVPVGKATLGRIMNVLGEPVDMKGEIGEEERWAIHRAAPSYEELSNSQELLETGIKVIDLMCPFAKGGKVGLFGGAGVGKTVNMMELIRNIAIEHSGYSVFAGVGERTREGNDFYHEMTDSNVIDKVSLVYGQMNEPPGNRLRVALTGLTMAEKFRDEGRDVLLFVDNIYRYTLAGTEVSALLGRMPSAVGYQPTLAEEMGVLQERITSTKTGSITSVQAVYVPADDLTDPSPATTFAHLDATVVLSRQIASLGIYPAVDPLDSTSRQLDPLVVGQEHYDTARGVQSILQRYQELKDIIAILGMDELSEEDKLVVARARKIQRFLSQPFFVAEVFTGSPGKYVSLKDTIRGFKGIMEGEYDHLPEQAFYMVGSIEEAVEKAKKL
T1 sequence (P0ABA6 whole entry): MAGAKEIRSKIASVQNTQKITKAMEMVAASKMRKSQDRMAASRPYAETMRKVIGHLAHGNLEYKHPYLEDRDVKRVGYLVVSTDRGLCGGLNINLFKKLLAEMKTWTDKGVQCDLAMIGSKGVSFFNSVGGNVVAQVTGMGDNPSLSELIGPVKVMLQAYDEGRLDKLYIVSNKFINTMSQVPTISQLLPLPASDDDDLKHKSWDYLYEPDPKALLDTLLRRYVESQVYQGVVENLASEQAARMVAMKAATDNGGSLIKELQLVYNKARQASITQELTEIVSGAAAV
T1 sequence (P0A6E6 2-139, further chain): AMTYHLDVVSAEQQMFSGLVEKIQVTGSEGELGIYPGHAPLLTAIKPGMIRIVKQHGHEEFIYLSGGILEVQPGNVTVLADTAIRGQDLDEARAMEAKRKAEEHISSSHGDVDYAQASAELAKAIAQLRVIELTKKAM
T1 sequence (P0ABB0 whole entry): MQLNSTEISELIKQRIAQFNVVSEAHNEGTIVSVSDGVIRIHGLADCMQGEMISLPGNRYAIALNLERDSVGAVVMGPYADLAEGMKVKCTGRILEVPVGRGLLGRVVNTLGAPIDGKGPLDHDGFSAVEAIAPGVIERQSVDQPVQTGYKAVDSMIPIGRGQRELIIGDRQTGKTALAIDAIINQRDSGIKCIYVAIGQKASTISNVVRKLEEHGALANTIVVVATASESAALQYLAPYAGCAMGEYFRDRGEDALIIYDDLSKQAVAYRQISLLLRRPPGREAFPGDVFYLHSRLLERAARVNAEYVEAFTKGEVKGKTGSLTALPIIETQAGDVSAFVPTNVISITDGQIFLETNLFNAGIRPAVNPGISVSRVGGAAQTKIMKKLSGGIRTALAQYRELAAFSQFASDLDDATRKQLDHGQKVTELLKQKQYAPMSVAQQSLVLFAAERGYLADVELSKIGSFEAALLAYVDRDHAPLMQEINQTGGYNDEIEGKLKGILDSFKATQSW

Row | Molecule | Residual ATPase Activity (%) [1, 4] [%] | maximum amount of inhibition of ATPase activity [1, 5] | Growth yield in limiting glucose (%) [2, 6] [%] | residual activity [1, 7] | IC50 [1] [µM] | further results
1 | 1,8,9-Anthracentriol [PC17] | 70 | ~ 30% | 69 |  |  | 
2 | Cc1cc(O)c(C(C)C)cc1O [PC01, Dihydrothymoquinone] | 60 | ~ 40% | 66 | ~ 60% |  | 
3 | Oc1ccc(O)cc1 [PC02, Hydroquinone] |  |  |  |  | ~20 | Residual ATPase Activity (%) [1]: 20%; maximum amount of inhibition of ATPase activity [1]: ~ 80%; Growth yield in limiting glucose (%) [2]: 55%
4 | Oc1cccc(O)c1 [PC03, Resorcinol] | 80 | ~ 20% | 79 | ~ 80% |  | 
5 | Oc1ccccc1O [PC04, Catechol] | 60 | ~ 40% | 57 | ~ 60% |  | 
6 | Oc1ccc(N=Cc2ccccc2O)cc1 [PC05, 2-[[(4-hydroxyphenyl)Imino]methyl]phenol] | 0 |  | 42 |  | ~5 | 
7 | Oc1cccc(N=Cc2ccccc2O)c1 [PC06, 2-[[(3-Hydroxyphenyl)imino]methyl]phenol] | 15 |  | 51 |  | ~5.25 | 
8 | Oc1cccc(C=Nc2ccccc2O)c1 [PC07, 3-[[(2-Hydroxyphenyl)imino]methyl]phenol] | 15 |  |  |  | ~9 | 
9 | Oc1ccc(C=Nc2cccc(O)c2)cc1 [PC08, 4-[[(3-Hydroxyphenyl)imino]methyl]phenol] | 0 |  |  |  | ~9 | 
10 | Oc1ccccc1C=Nc1ccccc1O [PC09, 2-[[(2-Hydroxyphenyl)imino]methyl]phenol] | 5 |  |  |  | ~7 | 
11 | Oc1cccc(C=Nc2cccc(O)c2)c1 [PC10, 3-[[(3-Hydroxyphenyl)imino]methyl]phenol] | 0 |  |  |  | ~2.25 | 
12 | Oc1ccc(C=Nc2ccc(O)cc2)cc1 [PC11, 4-[[(4-Hydroxyphenyl)imino]methyl]phenol] | 80 |  |  | ~ 80% |  | 
13 | O=[N+]([O-])c1cc(O)ccc1N=Cc1ccccc1O [PC12, 2-[[(4-Hydroxy-2-nitrophenyl)imino]methyl]phenol] | 0 |  |  |  | ~6 | 
14 | O=[N+]([O-])c1ccc(N=Cc2ccccc2O)c(O)c1 [PC13, 2-[[(2-Hydroxy-4-nitrophenyl)imino]methyl]phenol] | 0 |  |  |  | ~5 | 
15 | O=[N+]([O-])c1ccc(OP(=O)(Oc2ccc([N+](=O)[O-])cc2)Oc2ccc([N+](=O)[O-])cc2)cc1 [PC14, Tris(4-nitrophenyl)phosphate] | 55 | ~ 45% | 57 | ~ 55% |  | 
16 | O=[N+]([O-])c1ccc(OP(=O)(O)Oc2ccc([N+](=O)[O-])cc2)cc1 [PC15, Bis(4-nitrophenyl)phosphate] | 60 | ~ 40% | 63 |  |  | 
17 | O=C1c2cccc(O)c2C(=O)c2c(O)cccc21 [PC16, 1,8-Dihydroxy-9,10-anthraquinone] | 78 | ~ 22% | 80 | ~ 78% |  | 
18 | Oc1ccc(/C=C/c2cc(O)cc(O)c2)cc1 [resveratrol] |  |  |  |  |  | inhibition of E. coli ATP synthase [3]: ~ 40%
